Results as given in US20170209579A1, “NON-INVASIVE RADIOFREQUENCY FIELD TREATMENT FOR CANCER THERAPY” (Baylor College of Medicine, priority 2014, published 2017).

Assays:
Rad51 = test: Colocalization of Rad51 with γ-H2AX foci at gemcitabine-stalled replication forks; assay type: cell-based, human; conditions: Hep3B
Excerpt: FIGS. 15A-15D provide inhibition of Mre11 and Rad51 recruitment at gemcitabine-stalled replication forks by hyperthermia. (15A) Hep3B cells were exposed to hyperthermia and/or gemcitabine. (15B) and (15C) Mre11 and Rad51 were recruited at gemcitabine-stalled replication forks. […] Scale bar=10 μm. (15D) Quantification of data from colocalization experiments. Data are mean Pearson correlation (a.u.) and error bars represent the SD from three independent experiments with 10 replicates each (*P<0.05, **P<0.01). Gem=Gemcitabine; HT=Hyperthermia; N/A=not applicable, i.e., in hyperthermia treated cells BrdU staining is not detected as distinct foci and therefore correlation could not be quantified; ns=not significant, by the Student unpaired two-sided t test in comparison with gemcitabine alone group. Also, see FIGS. 22-24. […]
For immunocytochemistry assay, an indirect immunofluorescence approach was used. […] Cells from an exponentially growing culture were counted and approximately 50,000 cells were seeded in each well of a 12-well plate. […]
The slides were sealed with a conventional nail polish hardener and stored at 4° C. until imaging. […] Exposure settings were set to maximize dynamic range initially and then kept constant across multiple samples to allow quantitative comparisons. […]

[1] = tested on: γ-H2AX in Hep3B xenografts; test: γ-H2AX fluorescence immunohistochemistry in Hep3B xenografts; assay type: in vivo, mouse
Experimental: (30A) Sites of DNA damage were evaluated using fluorescence immunohistochemistry for γ-H2AX. Also note the increased nuclear fragmentation in the DAPI channel for combination therapy groups.
Tumor tissues harvested at the end of the experiment were fixed in 10% buffered formalin (pH 7.0) for 24 hours and subsequently stored in 70% ethanol (v/v) before embedding them in paraffin. For immunohistochemistry, 5-micron sections were placed on a glass slide and tissue sections were de-paraffinized and rehydrated. Antigen retrieval was performed in citrate buffer at pH 6.0. The slides were placed in Tris-buffer (pH 8.0) before further processing.
For fluorescence immunohistochemistry, a protocol similar to that used for immunocytochemistry (described above) was used with some modifications described here. Tris-buffer was removed and tumor section was encircled using a pap pen (Electron microscopy sciences, Hatfield, Pa.). For blocking, 5% (w/v) BSA and 3% (v/v) NGS was used instead of 3% BSA and 1% NGS, respectively. Imaging was performed as for immunocytochemistry.
Development of mouse models and details of RF exposure and thermography are discussed in FIGS. 25 and 26. Mice bearing Hep3B orthotopic tumors were randomized to one of five groups: untreated, RF exposure alone, gemcitabine alone, gemcitabine followed 24 hours later by RF exposure, or RF exposure immediately followed by gemcitabine. The treatments were administered twice a week for three weeks for a total of six treatments. The gemcitabine dose administered was […] or 150 mg/kg/week. This is approximately half the dose used in humans (1000 mg/m2/week dose in a 1.7 m human=˜300 mg/kg/week dose in a mouse). Twenty-four hours after the last treatment, mice were killed and tumors were harvested, weighed, and fixed in formalin for later analysis (FIG. 19A). […]

SMILES: Nc1ccn([C@@H]2O[C@H](CO)[C@@H](O)C2(F)F)c(=O)n1 [gemcitabine, 2′,2′-difluoro 2′-deoxycytidine]
- mean Pearson correlation, Rad51 with γ-H2AX foci (Rad51; gemcitabine alone (10 μg/ml)): 0.24
- mean Pearson correlation, Rad51 with γ-H2AX foci (Rad51; hyperthermia 42.5° C. 75 minutes then gemcitabine 10 μg/ml): 0.44
- Mean γ-H2AX positive pixels/HPF [±SD] ([1]; RF then gemcitabine): 45430±18980 pixels/HPF
- Mean γ-H2AX positive pixels/HPF [±SD] ([1]; gemcitabine alone): 27258±8022 pixels/HPF
- Mean γ-H2AX positive pixels/HPF [±SD] ([1]; gemcitabine then RF): 46968±10284 pixels/HPF
